Like-named read-outs stand apart in the source and are kept apart here.
Columns and labels:
[1] = test system: sub-genomic HCV replicon of genotype 1a; experiment: ELISA (NS5A protein level) in sub-genomic replicon 1a cell line W11.8; format: cell-based; conditions: for IC50: W11.8, Table 4; for IC99 (nM) (1a): Table 4
From the text: Activity Determination Using the ELISA and the Sub-Genomic Replicon 1a Cell Line
The cell line W11.8 containing the sub-genomic HCV replicon of genotype 1a is used to determine the potency of the drugs. The RNA replication in presence of different drug concentrations is indirectly measured in this cell line by the level of NS5A protein content upon drug treatment for four days. It is shown that the level of the NS5A protein correlates well with the level of HCV RNA in the replicon cell line. Cells are split twice a week in order to keep the confluence state below 85% of the culture flask surface area. The culture media used for cell passaging consists of DMEM-10% foetal bovine serum with 100 UI/mL penicillin, 100 μg/mL streptomycin, 2 mM glutamine, 1 mM sodium pyruvate, non-essential amino acids (1×) and 600 μg/mL of G418 final concentrations. Monolayer of the W11.8 cells is trypsinized and cells are counted. Cells are diluted at 50,000 cells/mL with complete DMEM without G418, then approximately 5,000 viable cells (100 μL) are plated per well in a white opaque 96-well microtiter plate. After an incubation period of 2-4 hours at 37° C. in a 5% CO2 incubator, compounds are added at various concentrations. Drugs are resuspended in DMSO at a stock concentration of 10 mM. Then, drugs are serially diluted at twice the final concentration in the same medium. One volume (100 μL) of each drug dilution is then added to each well that contains cells. A control compound is used as an internal standard for each plate assay. Sixteen wells are used as control (0% inhibition) without drug. […] Values from 100% inhibited wells were averaged and used as the background value. Cells are further incubated for four days at 37° C. in a 5% CO2 incubator. Following the incubation time of four days, the media is removed and wells are washed once with 150 μL of PBS at room temperature for five minutes. Cells are then fixed for five minutes using 150 μL per well of cold (−20° C.) fixative solution (50% methanol/50% acetone mix). Cells are then washed twice with 150 μL of PBS (phosphate buffered saline) per well, following the addition of 150 μL of blocking solution, cells are incubated for one hour at 37° C. to block non-specific sites. The blocking solution is removed and cells are washed twice with 150 μL of PBS per well and once with 150 μL of PBSTS solution (PBS/0.1% Triton X-100/0.02% SDS) per well. Then, 50 μL of mouse monoclonal anti-NS5A antibody (Santa Cruz, Cat. No. sc-52417) is added in each well, diluted 1/1,000 in the blocking solution and incubated at 4° C. overnight. Next day, media is removed and plates are washed five times with 150 μL of PBS per well with five-minute incubations at room temperature. Then 50 μL per well of peroxidase-conjugated donkey anti-mouse antibody (Jackson Immunoresearch, Cat. No. 715-036-150) diluted 1/10,000 in the blocking solution is added and incubated at room temperature for three hours on a shaker (500 rpm). Plates are washed four times with 150 μL of PBSTS solution per well and once with 150 μL of PBS. Then, substrate solution (100 μl, SuperSignal ELISA Pico Chemiluminescent Substrate, Fisher Cat. No. 37069) is added in each well and plates are incubated 60 minutes at room temperature prior to reading the luminescence (relative light units) on the Analyst HT plate reader. The percentage of inhibition at each drug concentration tested (in duplicate) is calculated.

[2] = test system: HCV (1b) RNA replication (replicon I389Luc-ubi-neo/NS3-3′/5.1); experiment: Cell-based luciferase reporter HCV (1b) RNA replication assay, Huh-ET cells; conditions: Table 4, sub-genomic replicon 1b cell line; for IC50: Hepatitis C virus
From the text: Cell-Based Luciferase Reporter HCV (Ib) RNA Replication Assay Cell Culture
Replicon cell lines Huh-5.2 are derived from the Huh-7 hepatocarcinoma cell line are maintained in culture as generally described in Krieger, N; Lohmann, V; Bartenschlager, R. Enhancement of hepatitis C virus RNA replication by cell culture-adaptive mutations. J. Virol. 2001, 75, 4614-4624. The Huh-5.2 cells contain the highly cell culture-adapted replicon I389Luc-ubi-neo/NS3-3′/5.1 construct that carries, in addition to the neomycin gene, an integrated copy to the firefly luciferase gene (Krieger, N; Lohmann, V; Bartenschlager, R. Enhancement of hepatitis C virus RNA replication by cell culture-adaptive mutations. J. Virol. 2001, 75, 4614-4624). This cell line allows measurement of HCV RNA replication and translation by measuring luciferase activity. It has been previously shown that the luciferase activity tightly follows the replicon RNA level in these cells (Krieger, N; Lohmann, V; Bartenschlager, R. Enhancement of hepatitis C virus RNA replication by cell culture-adaptive mutations. J. Virol. 2001, 75, 4614-4624). The Huh-ET cell line has the same features as those mentioned for Huh-5.2 cell line, except that ET cells are more robust and contain an adaptative mutation in the HCV NS4B gene instead of NSSA. Both cell lines are maintained in cultures at a sub-confluent level (<85%) as the level of replicon RNA is highest in actively proliferating cells. The culture media used for cell passaging consist of DMEM (Gibco BRL Laboratories, Mississauga, ON, Canada) supplemented with 10% foetal bovine serum with 1% penicilin/streptomycin, 1% glutamine, 1% sodium pyruvate, 1% non-essential amino acids, and 180 μg/ml of G418 final concentration. Cells are incubated at 37° C., in an atmosphere of 5% CO2 and passaged twice a week to maintain sub-confluence.
Approximately 3000 viable Huh-ET cells (100 μl) are plated per well in a white opaque 96-well microtiter plate. The cell culture media used for the assay is the same as described above except that it contains no G418 and no phenol red. After an incubation period of 3-4 hours at 37° C. in a 5% CO2 incubator, compounds (100 μl) are added at various concentrations. Cells are then further incubated for 4 days at 37° C. in a 5% CO2 incubator. Thereafter, the culture media is removed and cells are lysed by the addition of 95 μL of the luciferase buffer (luciferin substrate in buffered detergent). Cell lysates are incubated at room temperature and protected from direct light for at least 10 minutes. Plates are read for luciferase counts using a luminometer (Wallac MicroBeta Trilux, Perkin Elmer™, MA, USA).
Curves are fitted to data points using nonlinear regression analysis, and IC50s are interpolated from the resulting curve using GraphPad Prism software, version 2.0 (GraphPad Software Inc., San Diego, Calif., USA).

[3] = Hepatitis C virus, W11.8, read-out: EC50 (μM) (1a), Table 3

SMILES | EC50 [1, 3] | EC50 ([1]; read-out: EC50 (μM) (1a), Table 3) | IC50 ([1]; Hepatitis C virus) | IC99 (nM) (1a) [1] | IC50 [2] | IC99 (nM) (1b) [2]
COC(=O)N[C@H](C(=O)N1C[C@@H](C)C[C@H]1c1nc2sc(C#CC#Cc3cc4[nH]c([C@@H]5C[C@H](C)CN5C(=O)[C@@H](NC(=O)OC)C(C)C)nc4s3)cc2[nH]1)C(C)C [Compound 4b] | 0.184 µM | – | – | – | – | –
COC(=O)N[C@H](C(=O)N1C[C@@H](C)C[C@H]1c1nc2cc(C#Cc3cc4[nH]c([C@@H]5C[C@H](C)CN5C(=O)[C@@H](NC(=O)OC)C(C)C)nc4s3)ccc2[nH]1)C(C)C [Compound 2b] | 0.0403 µM | 0.0377 µM | – | – | – | –
COC(=O)N[C@H](C(=O)N1CCC[C@H]1c1nc2sc(C#CC#Cc3cc4[nH]c([C@@H]5CCCN5C(=O)[C@@H](NC(=O)OC)C(C)C)nc4s3)cc2[nH]1)C(C)C [Compound 3b] | 0.282 µM | – | – | – | – | –
COC(=O)N[C@H](C(=O)N1CCCC1c1nc2cc(C#Cc3cc4[nH]c([C@@H]5CCCN5C(=O)[C@@H](NC(=O)OC)C(C)C)nc4s3)ccc2[nH]1)C(C)C (stereo partly shown) [Compound 1b] | 0.828 µM | – | – | – | – | –
COC(=O)N[C@H](C(=O)N1C[C@@H](C)C[C@H]1c1nc2sc(-c3ccc(-c4ccc5[nH]c([C@@H]6CC[C@H](C)N6C(=O)[C@@H](NC(=O)OC)C(C)C)nc5c4)cc3)cc2[nH]1)C(C)C [Compound 2c] | – | – | 0.619 nM | 10.038 nM | 0.005 nM | 0.303 nM
COC(=O)NC(C(=O)N1C[C@@H](C)C[C@H]1c1nc2sc(-c3ccc(-c4ccc5[nH]c([C@@H]6C[C@H](C)CN6C(=O)[C@@H](NC(=O)OC)C(C)C)nc5c4)cc3)cc2[nH]1)C(C)C (stereo partly shown) [Compound 1c] | – | – | 1.65 nM | 11.155 nM | 0.011 nM | 0.207 nM

Reference: US20130090364A1, “ANALOGUES FOR THE TREATMENT OR PREVENTION OF FLAVIVIRUS INFECTIONS” (priority 2010, published 2013)
